The record followed here is US11299460B2, “MDM2 inhibitor, preparation method therefor, pharmaceutical composition thereof and use thereof” (SHANGHAI LONGWOOD BIOPHARMACEUTICALS CO., LTD., priority 2018, dated 2022).

Experiment [1] concerns the target T1, GST-hMDM2 (aa1-188) (Homo sapiens, UniProt Q00987).
T1 construct: The amino acid residues 1-188 of human MDM2 were expressed as GST-hMDM2 fusion protein; made in house; host or cells: E. coli
In words: Homogeneous time resolved fluorometry (HTRF assay), hMDM2/p53 interaction. The class given is binding. Conditions: HTRF analysis; GST-hMDM2 (aa1-188) / biotinylated-p53 (aa1-83). As to the method: Residues 1-83 of human p53 were expressed as avitag <TM>-trxa-6×his fusion protein (biotinlabelled p53) in E. coli. Each protein was separated from cell homogenate by affinity chromatography.
Specifically, 10 μL GST-hMDM2 was incubated with 10 uL diluted compound in 10% DMSO for 20 minutes at room temperature. 20 μL biotinlabelled-p53 was added to the mixture of GST-hMDM2 and then incubated at room temperature for 60 min. A 10 μL detection buffer consisting of SA-XLent, anti-GST cavernous compound antibody and KF was added to the reaction solution consisting of GST-hMDM2, biotinlabelled-p53 and the compound and was placed at room temperature to achieve equilibrium and maintained for more than 4 h. The final concentration of DMSO in the reaction solution was 2%. Time resolved fluorescence were measured on a microplate multi label reader. The inhibition percentage was calculated relative to nutlin-3.
On the technique in general: TR-FRET usually uses a lanthanide donor and a delayed reading to cut background.

Experiment [2] concerns p21 transcripts in SJSA-1 cells. In words: p21 assay (QRT-PCR of p21 transcripts in SJSA-1 cells). The format is cell-based, human. Conditions: cell assay (SJSA-1 cell), p21 induction, 7 hours incubation. The source says:
Inhibition of the interaction between hMDM2 and p53 results in the activation of the p53 pathway via the stabilization and accumulation of p53. P53 activates the transcription of many genes, one of which is p21<WAFT/CIP1>. To evaluate the potency of hMDM2 inhibitors, quantitative reverse transcription polymerase chain reaction (QRT PCR) was used to measure the level of p21 transcripts of compound related cells relative to that of control cells treated with dimethyl sulfoxide (DMSO).
In the first day, SJSA-1 cells were inoculated into 100 μL growth medium (RPMI1640; 10 mM HEPES; 1 mM sodium pyruvate; 1× penicillin streptomycin glutamine (PSQ) and 10% FBS, all reagents were obtained from Invitrogen) at a density of 3×10^4 cells in 96-well cell culture plate. The cells were cultured overnight at 37° C. and 5% CO2 atmosphere.
In the second day, hMDM2 inhibitor was gradient diluted in DMSO(Sigma-Aldrich; St. Louis, Mo.). 5 μl of each compound dilution were added into 245 μl filtered assay medium (RPMI1640, 10% FBS, 10 mM HEPES, 1 mM sodium pyruvate and 1×PSQ). Or the assay was conducted with the presence of 10% human serum or 10% mouse serum, or without serum. Growth medium was removed from inoculated SJSA-1 cell culture plate and replaced by 100 μL assay medium for each well. Then 100 μL culture medium containing diluted inhibitor was added into each well to a final volume 200 μL. The final concentration of the compound was in the range of 0.049 μm-50 μm by dose titration with DMSO as control. The cells were incubated at 37° C. and 5% CO2 for 7 hours with the presence of inhibitor. When incubation was completed, growth medium was removed from cells and the plate was stored at −80° C.
In the third day, giagen BioRobot Universal workstation was used to purify total RNA from SJSA-1 cells treated with inhibitor and DMSO respectively. The purification procedure herein was according to RNeasy96BioRobot8000 test kit provided by Qiagen, Valencia, Calif.
To measure the level of existing p21 transcripts, QRT-PCR was introduced. The levels of p21, housekeeping genes and glyceraldehyde 3-phosphate dehydrogenase (GAPDH) were determined by the total RNA from each inhibitor- or DMSO-treated well by duplicated test. The QRT-PCR reaction was performed on the Applied Biosystems prism 7900ht instrument using the relative quantitative (ΔΔ Ct) method according to the following cycle conditions: 48° C. for 30 minutes, then 95° C. for 10 minutes, and then was 40 cycles consisting of 95° C. for 15 seconds and 60° C. for 1 minute. The data were analyzed by using Applied Biosystems SDS2.2 software, with GAPDH as inner control and DMSO treated samples as calibrators. SDS2.2 software calculated the relative quantification (RQ) or increased fold of p21 level relative to DMSO control for each treated sample. The maximum (100%) p21 induction fold was defined by the maximum value of the fitting curve of the reference compound. The p21 induction fold of each inhibitor dose tested was converted to a value representing the percentage of the maximum value. XLFit software (ID business solutions, Alameda, Calif.) was used to make dose-response curve to calculate the IC50 transit value of each inhibitor tested.

Structures are written as SMILES.

T1 sequence (Q00987 1-188): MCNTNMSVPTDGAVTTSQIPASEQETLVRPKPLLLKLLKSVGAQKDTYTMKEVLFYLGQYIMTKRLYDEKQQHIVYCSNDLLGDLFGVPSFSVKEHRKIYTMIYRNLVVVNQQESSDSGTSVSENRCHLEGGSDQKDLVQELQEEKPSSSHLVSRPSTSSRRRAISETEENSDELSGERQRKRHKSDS

What is called IC50 is the midpoint of a concentration-inhibition curve. A lower IC50 goes with greater potency. As to `CC(C)[C@@H](CS(=N)(=O)C(C)C)N1C(=O)[C@@](C)(CC(=O)Nc2ccccc2)C[C@H](c2cccc(Cl)c2)[C@H]1c1ccc(Cl)cc1` (stereo partly drawn) [Compound 015], the IC50 lay within 10 to 100 nM in experiment [1] and 1000 to 10000 nM in experiment [2] (Homo sapiens, SJSA-1, 7 h).

With `COc1cc(NC(=O)C[C@@]2(C)C[C@H](c3cccc(Cl)c3)[C@@H](c3ccc(Cl)cc3)N([C@H](CS(=N)(=O)C(C)C)C(C)C)C2=O)ccc1C(=O)O` (stereo partly drawn) [Compound 008], the 50% inhibitory concentration (IC50) in experiment [1] was less than 10 nM; in experiment [2] (Homo sapiens, SJSA-1, 7 h), less than 1000 nM.

For the molecule `CC(C)[C@@H](CS(=N)(=O)C(C)C)N1C(=O)[C@@](C)(CC(=O)O)C[C@H](c2cccc(Cl)c2)[C@H]1c1ccc(Cl)cc1` (stereo partly drawn) [Compound 001], the half-inhibitory concentration (IC50) in experiment [1] was less than 10 nM; in experiment [2] (Homo sapiens, SJSA-1, 7 h), less than 1000 nM.

Consider `CC(C)[C@@H](CS(=N)(=O)C(C)C)N1C(=O)[C@@](C)(CC(=O)Nc2cccc(Br)c2)C[C@H](c2cccc(Cl)c2)[C@H]1c1ccc(Cl)cc1` (stereo partly drawn) [Compound 012], for which the 50% inhibitory concentration (IC50) in experiment [1] was more than 100 nM; in experiment [2] (Homo sapiens, SJSA-1, 7 h), 1000 to 10000 nM.

On to `CC(C)[C@@H](CS(=N)(=O)C(C)C)N1C(=O)[C@@](C)(CC(=O)O)C[C@H](c2cccc(Cl)c2)[C@H]1c1ccc(Cl)cc1` (stereo partly drawn) [Compound 002], for which the IC50 in experiment [1] is less than 10 nM; in experiment [2], less than 1000 nM.

In the case of `CC(C)[C@@H](CS(=O)(=NC(N)=O)C(C)C)N1C(=O)[C@@](C)(CC(=O)O)C[C@H](c2cccc(Cl)c2)[C@H]1c1ccc(Cl)cc1` (stereo partly drawn) [Compound 034], the IC50 was less than 10 nM in experiment [1] and less than 1000 nM in experiment [2] (Homo sapiens, SJSA-1, 7 h).

In the case of `CC(C)[C@@H](CS(=N)(=O)C(C)C)N1C(=O)[C@@](C)(CC(=O)Nc2ccc(C(=O)O)cc2)C[C@H](c2cccc(Cl)c2)[C@H]1c1ccc(Cl)cc1` (stereo partly drawn) [Compound 007], the IC50 in experiment [1] was less than 10 nM; in experiment [2] (Homo sapiens, SJSA-1, 7 h), 1000 to 10000 nM.

Regarding `CC(C)[C@@H](CS(=O)(=NC(=O)N(C)C)C(C)C)N1C(=O)[C@@](C)(CC(=O)O)C[C@H](c2cccc(Cl)c2)[C@H]1c1ccc(Cl)cc1` (stereo partly drawn) [Compound 045], the IC50 in experiment [1] was less than 10 nM; in experiment [2] (Homo sapiens, SJSA-1, 7 h), less than 1000 nM.

Consider `CC(C)[C@@H](CS(=O)(=NC(=O)N1CCCC1)C(C)C)N1C(=O)[C@@](C)(CC(=O)O)C[C@H](c2cccc(Cl)c2)[C@H]1c1ccc(Cl)cc1` (stereo partly drawn) [Compound 047], for which the IC50 in experiment [1] is less than 10 nM; in experiment [2] (Homo sapiens, SJSA-1, 7 h), less than 1000 nM.

In the case of `CCOC(=O)N=S(=O)(C[C@H](C(C)C)N1C(=O)[C@@](C)(CC(=O)O)C[C@H](c2cccc(Cl)c2)[C@H]1c1ccc(Cl)cc1)C(C)C` (stereo partly drawn) [Compound 048], the IC50 in experiment [1] is less than 10 nM; in experiment [2] (Homo sapiens, SJSA-1, 7 h) it was less than 1000 nM.

`CC(C)[C@@H](CS(=N)(=O)C(C)C)N1C(=O)[C@@](C)(CC(=O)NS(=O)(=O)c2ccc(C#N)cc2)C[C@H](c2cccc(Cl)c2)[C@H]1c1ccc(Cl)cc1` (stereo partly drawn) [Compound 024]: the IC50 lay in the range of 10 to 100 nM in experiment [1] and 1000 to 10000 nM in experiment [2] (Homo sapiens, SJSA-1, 7 h).

Regarding `CC(C)[C@@H](CS(=N)(=O)C(C)C)N1C(=O)[C@@](C)(CC(=O)NS(=O)(=O)c2ccccc2)C[C@H](c2cccc(Cl)c2)[C@H]1c1ccc(Cl)cc1` (stereo partly drawn) [Compound 020], the concentration for half-maximal inhibition (IC50) in experiment [1] fell in the range of 10 to 100 nM; in experiment [2] (Homo sapiens, SJSA-1, 7 h), 1000 to 10000 nM.

Regarding `CC(C)[C@@H](CS(=O)(=NC#N)C(C)C)N1C(=O)[C@@](C)(CC(=O)O)C[C@H](c2cccc(Cl)c2)[C@H]1c1ccc(Cl)cc1` (single isomer, unassigned) [Compound 006], the IC50 in experiment [1] was less than 10 nM; in experiment [2] (Homo sapiens, SJSA-1, 7 h) it was less than 1000 nM.

Take `Cc1ccc(S(=O)(=O)NC(=O)C[C@@]2(C)C[C@H](c3cccc(Cl)c3)[C@@H](c3ccc(Cl)cc3)N([C@H](CS(=N)(=O)C(C)C)C(C)C)C2=O)cc1` (stereo partly drawn) [Compound 021]: the 50% inhibitory concentration (IC50) is 10 to 100 nM in experiment [1] and 1000 to 10000 nM in experiment [2] (Homo sapiens, SJSA-1, 7 h).

Regarding `COc1cc(NC(=O)C[C@@]2(C)C[C@H](c3cccc(Cl)c3)[C@@H](c3ccc(Cl)cc3)N([C@H](C[S@](=O)(=NC(C)=O)C(C)C)C(C)C)C2=O)ccc1C(=O)O` [Compound 042], the 50% inhibitory concentration (IC50) is less than 10 nM in experiment [1] and less than 1000 nM in experiment [2] (Homo sapiens, SJSA-1, 7 h).
